For data set [1], the system named is SH-SY5Y human neuroblastoma cells. Description: LDH cytotoxicity assay (cell viability). Format: cell-based. The following applies: 24 h, 0.001–10 µM. As to the method:
(§1) SH-SY5Y human neuroblastoma cell line was obtained from American Type Culture Collection (ATCC), number CRL2266. Cells were cultured in Dulbecco´s modified Eagle´s medium: Nutrient Mix F-12 (DMEM/F-12) with 10% fetal bovine serum (FBS), 1% glutamax, 100 U/mL penicillin and 100 µg/mL streptomycin. Cells were maintained at 37 °C in a humidified atmosphere of 5% CO2 and 95% air and dissociated weekly using 0.05% trypsin/EDTA. All the reagents were obtained from Thermo Fischer Scientific.
Cell viability was assessed with the LDH test. Cells were seeded in 96-well plates and exposed to different compound concentrations (0.001–10 µM). Cells were incubated with compounds at 37 °C in humidified 5% CO2/95% air atmosphere for 24 h. Quillaja bark saponin was used as cellular death control. Then, cell medium was collected and LDH release was evaluated. Pierce^TM LDH-Cytotoxicity Assay Kit (Thermo Fisher Scientific) was used for LDH determination. Absorbance was measured at 490 nm to determine LDH release to the medium. Experiments were carried out in triplicate at least three independent times.

The test system of a further data set is p70 S6 kinase. Description: Western blot, p70 S6 kinase activation (phosphorylated/total). The data set is classed as cell-based, human. The following applies: SH-SY5Y cells, 24 h; one range given for the three compounds together. The method, then: (§2) SH-SY5Y cells were seeded in 12-well plates and treated with laxaphycins for 24 h. Next, cells were washed with PBS and lysis buffer (50mM Tris HCl, 150 mM NaCl, 1mM EDTA and 1% Triton x-100, supplemented with a complete phosphatase/protease inhibitor cocktail) was added to each well. Cells were scrapped, sonicated and centrifuged at 13,000 rpm at 4 °C for 20 min.
(§3) In both cases, the supernatant was collected as the cytosolic fraction and quantified with the Bradford method. Samples containing 15 µg were used for electrophoresis, resolved in 4–20% sodium dodecyl sulphate polyacrylamide gel (Biorad, Madrid, Spain). Proteins were transferred to PVDF membranes (Merck Millipore) with a Trans-Blot® semi-dry transfer cell (Biorad). Membrane blocking and antibody incubation was performed in Snap i.d. system (Merck Millipore). Protein bands were detected with Supersignal West Pico Luminiscent Substrate and Supersignal West Femto Maximum Sensitivity Substrate (Thermo Fisher Scientific). Chemiluminiscence was determined with Diversity GeneSnap system and software (Syngene). LC3 II/I was detected with the primary antibody anti-LC3 II/I (1:1000, Abcam), the primary antibody anti-pmTOR (Ser2448) (1:1000, Merck Millipore) was used to recognize phospho-mTOR and the total levels of the kinase were determined with anti-mTOR antibody (1:10000, Abcam), beclin-1 was detected with anti-beclin-1 primary antibody (1:1000, Merck Millipore), p62 was quantified with anti-p62 antibody (1:1000, Merck Millipore), anti-phospho-p70 S6 kinase (Thr389) (1:1000, Merck Millipore) was used to detect phospho- p70 and the total levels were quantified using anti-p70 S6 kinase antibody (1:1000, Merck Millipore), anti-phospho-AMPK (Thr172) (1:500, Merck Millipore) was used to recognize the phosphorylated state of the kinase, and the total expression of the enzyme was detected with anti-AMPK antibody (1:500, Merck Millipore). Protein levels were normalized using β-Actin (1:20,000, Millipore). Baf A1 (0.001 µM), Rap (0.1 µM) and Comp C (1 µM) were used as controls for autophagic flux measurements. […]
Background: In western blotting, separated proteins are transferred to a membrane and probed.

Data set [2] deals with SH-SY5Y human neuroblastoma cells. As to the kind of experiment: MTT cell metabolic activity assay. The data set is classed as cell-based. The following applies: 24 h, 0.001–10 µM, absorbance 595 nm, three experiments in triplicate. As to the method: as §1
The effect of laxaphycins on cell metabolic activity was evaluated by MTT (3-(4, 5-dimethyl thiazol-2-yl)-2, 5-diphenyl tetrazolium bromide) assay. SH-SY5Y cells were cultured in 96-well plates and treated with compounds at concentrations ranging from 0.001 to 10 µM for 24 h. Next, cells were rinsed three times and incubated for 1 h with MTT (500 µg/mL) dissolved in saline buffer. MTT excess was washed and cells were disaggregated with 5% sodium dodecyl sulfate. Absorbance of the colored formazan salt was measured at 595 nm in a spectrophotometer plate reader. Cell death control signal was subtracted from the other data.

For data set [3] the test system is unchanged. Description: Annexin V-FITC / propidium iodide flow cytometry. Format: cell-based. The settings on record: 24 h, 1 at 0.3 µM; for Cell survival (flow cytometry): 2 at 0.15 µM (MTT IC50 values); for Apoptotic cells (early and late, Annexin V positive): 2 at 0.15 µM, STS at 0.01 µM, percentage of total cells, mean ± SEM of three experiments. As to the method:
The Annexin V-FITC Apoptosis Detection Kit was used to determine the cell death produced by compounds as previously described. SH-SY5Y cells were seeded in 12-well plates at 1 × 10^6 per well and incubated for 24 h with laxaphycins. Then, cells were washed with PBS and resuspended in Annexin binding buffer containing Annexin V-FITC and PI. Cells were incubated for 15 min at room temperature, resuspended in PBS and filtered. The fluorescence was determined by flow cytometry using the ImageStreamMKII (Amnis Corporation, Luminex Corp, Austin, TX, USA). 10,000 events were analyzed with IDEAS Application 6.0 software (Amnis Corporation, Luminex Corp, Austin, TX, USA). STS (Sigma Aldrich) at 0.01 µM was used as control in this assay.
(In general: Flow cytometry measures light scatter and fluorescence of single cells or particles in a stream.)

In data set [4] the test system is drug-sensitive and multidrug-resistant tumor cell lines. Details: method as in PMID 17323939. The following applies: previous works; read-out: IC50, toxicity towards drug-sensitive and multidrug-resistant tumor cell lines; cited from earlier work. An excerpt: (§4) Moreover, this study is the first description of the effects on mitochondria and autophagy produced by acyclic B-type laxaphycins, and also confirms that the toxic effects of cyclic laxaphycins B are mediated by an apoptotic process. […] Our results in neuroblastoma cells are in ag ...

For a further data set, the system named is caspase 3. As to the kind of experiment: Caspase 3 activity in cell lysates (EnzCheck kit). Format: cell-based, human. The settings on record: SH-SY5Y cells, 24 h; 1 at 0.3 µM, 2 at 0.15 µM. As to the method:
The detection of caspase 3 activity was carried out with the EnzCheck® Caspase-3 Assay Kit. Neuroblastoma cells were cultured in 12-well plates at 1 × 10^6 cells per well and treated with compounds. After 24 h, cells were lysed and an aliquot was collected to quantify protein concentration by the Bradford method. Then, the assay was performed following manufacturer’s instructions. Briefly, 50 µL of each sample were mixed with equal volume of Z-DEVD-AMC substrate and incubated for 30 min at room temperature. Then, fluorescence at 342 nm excitation and 441 nm emission was measured. Caspase 3 activity data were corrected by protein concentration values. STS (0.01 µM) was used as positive control.

The next data set has as its system mTOR. As to the kind of experiment: Western blot, mTOR activation (phosphorylated/total). The settings on record: SH-SY5Y cells, 24 h; Rap 0.1 µM. The data set is classed as cell-based, human. The method, then:
as §2, §3

The test system of data set [5] is panel of cancer cell lines. The settings on record: read-out: IC50, cytotoxic effects against a panel of cancer cell lines; previous works; cited from earlier work.
Excerpt: as §4

Starred links: 1 amine or outer side, 2 acyl side, 3 side chain; linkers in the order of their positions; H or OH if unused. Non-standard residues stand in square brackets, D forms with d. Residues, ends and D or L forms follow the SMILES beside them. dβ3hGly(nHeptyl) = CCCCCCC[C@H](CC(=O)[*:2])N[*:1]; dAsn(3R-OH) = NC(=O)[C@H](O)[C@@H](N)C(=O)O; dLeu(3S-OH) = CC(C)[C@H](O)[C@@H](N)C(=O)O; Hyp = O=C(O)[C@@H]1C[C@@H](O)CN1; NMeI = CC[C@H](C)[C@H](NC)C(=O)O Some results are limits rather than exact numbers.

The values below come from paper PMC7404270, “Biological Activities of Cyclic and Acyclic B-Type Laxaphycins in SH-SY5Y Human Neuroblastoma Cells” (Marine Drugs, 2020).

Consider `CCCCCCC[C@@H]1CC(=O)N[C@@H](C(C)C)C(=O)N[C@H]([C@@H](O)C(C)C)C(=O)N[C@@H](C)C(=O)N[C@H]([C@@H](O)C(C)C)C(=O)N[C@@H](CCC(N)=O)C(=O)N(C)[C@@H]([C@@H](C)CC)C(=O)N[C@H]([C@@H](O)C(N)=O)C(=O)N[C@@H]([C@@H](C)O)C(=O)N2C[C@H](O)C[C@H]2C(=O)N[C@H](CC(C)C)C(=O)N[C@@H]([C@@H](C)O)C(=O)N1` [compound 2, laxaphycin B3] (cyclo([dβ3hGly(nHeptyl)]V[dLeu(3S-OH)]A[dLeu(3S-OH)]Q[NMeI][dAsn(3R-OH)]T[Hyp][dL]T)), for which the “Cytotoxicity / cell viability (LDH test), in words” value in data set [1] is given as “cytotoxic to neuroblastoma cells”. In the data set on p70 S6 kinase, the “p70 S6 phosphorylation” value is 53.5%–78.6%. Moreover, the IC50 (in general, the concentration that inhibits the measured activity by half) in data set [2] came out at 150 nM. Also, in data set [3], the “Cell survival (flow cytometry)” value is given as “around 60 % of control cells”; the “Apoptotic cells (early and late, Annexin V positive)” value is reported as 46.4% ± 4.8%. In addition, in data set [4], the IC50 is around 1000 nM. Moreover, the “Increase in caspase 3 activity” value in the data set on caspase 3 is on record as “about 20 % of control cells”. Moreover, the “mTOR activation (phospho/total), in words” value in the data set on mTOR is “did not affect to the protein expression”.
On to `CCCCCCC[C@@H]1CC(=O)N[C@@H](C(C)C)C(=O)N[C@H]([C@@H](O)C(C)C)C(=O)N[C@@H](C)C(=O)N[C@H]([C@@H](O)C(C)C)C(=O)N[C@@H](CCC(N)=O)C(=O)N(C)[C@@H]([C@@H](C)CC)C(=O)N[C@H]([C@@H](O)C(N)=O)C(=O)N[C@@H]([C@@H](C)O)C(=O)N2CCC[C@H]2C(=O)N[C@H](CC(C)C)C(=O)N[C@@H]([C@@H](C)O)C(=O)N1` [compound 1, laxaphycin B] (cyclo([dβ3hGly(nHeptyl)]V[dLeu(3S-OH)]A[dLeu(3S-OH)]Q[NMeI][dAsn(3R-OH)]TP[dL]T)), for which the “Cytotoxicity / cell viability (LDH test), in words” value in data set [1] is “cytotoxic to neuroblastoma cells”. The IC50 in data set [2] is 300 nM; in data set [4], around 1000 nM; in data set [5] it was below 2000 nM. Also, the “Cell survival (flow cytometry)” value in data set [3] is “around 60 % of control cells”. Further, the “Apoptotic cells (early and late, Annexin V positive)” value in data set [3] is 50.4% ± 4.8%. In addition, the “Increase in caspase 3 activity” value in the data set on caspase 3 is given as “about 20 % of control cells”. Besides, the “mTOR activation (phospho/total), in words” value in the data set on mTOR is given as “did not affect to the protein expression”.
